Columns and labels:
[1] = moisture sorption (dynamic vapor sorption) and visual onset of crystallization in microwave-dried amorphous trehalose/salt samples at 61% RH; format: physicochemical
Experimental: A stock solution of 30.8 wt % trehalose (1.3 M), made in 1×TE buffer (1×Tris-EDTA buffer, pH 8.0, consisting of 10 mM Tris-HCl and 1 mM EDTA), was used to prepare solutions with varying amounts of phosphate salts (salt to trehalose molar ratio (R) is 1:4.8, 1:2 and 1:0.7). […] The end moisture content was measured below 0.105 gH2O/gdw which is known to produce a glass transition temperature higher than room temperature in the case of aqueous trehalose solutions. […] Specifically, in order to investigate moisture sorption in different trehalose/salt compositions at the 61% relative humidity, a closed environment with a stable relative humidity over the test duration was prepared. Supersaturated salt solutions of sodium bromide (prepared by following ASTM Protocol E 104-02) are capable of producing an environment with constant relative humidity of 61%. […] glass jars with rubber seals and clamps or Mason glass jars with screw caps are used as controlled humidity vessels (1 L, total height 159 mm, mouth Dia. 89 mm). The dynamic vapor sorption (DVS) method was used to monitor moisture sorption in the microwave-processed trehalose samples before and after crystallization (crystals were detected visually in samples). The moisture uptake in trehalose/salt samples were monitored to evaluate the effect of salts on end moisture content at time zero after microwave processing at 11% RH. Moisture sorption trends in samples over the experiment duration while held in the preservation jars (61% RH) were also evaluated. In this study, the gravimetric method was used to determine the dry weight of samples with different compositions (expressed in terms of mass of water per mass of solids). […] (below the crystallization temperature of Trehalose). The sample was then cooled in a desiccator containing phosphorus pentoxide (P2O5) which maintained the humidity near 0% RH. By recording the initial wet mass and the bake-out dry mass, the dry weight of each composition was obtained.

[2] = 37.5% RH; cited from earlier work
[3] = 25° C.; cited from earlier work
[4] = remained constant in RH environment of up to 92%; cited from earlier work

C[N+](C)(C)CCO.O=P([O-])(O)O [pure choline dihydrogen phosphate, choline dihydrogen phosphate]
hygroscopicity (moisture uptake) ([1]; 61% RH): very hygroscopic
crystallization observed ([1]; 61% RH, pure salt without trehalose): no crystallization

OC[C@H]1O[C@H](O[C@H]2O[C@H](CO)[C@@H](O)[C@H](O)[C@H]2O)[C@H](O)[C@@H](O)[C@@H]1O [pure trehalose, trehalose]
crystals on DSC thermograms [2]: did not show any crystals
water absorbed to enable the formation of trehalose dihydrate ([1]; 61% RH): around 0.105 gH2O/g trehalose
moisture content level after crystallization ([1]; 61% RH, level the moisture content fell to after crystallization (pure trehalose: during the following 18 days)): around 0.105 gH2O/gdw
time (day) of onset of sugar crystallization, observed visually ([1]; storage at 61% RH after microwave drying at 11% RH): 1 days
RH at which isotherm exhibited a plateau (formation of trehalose dihydrate crystals) [3]: ≥ 44 % RH

OC[C@H]1O[C@H](O[C@H]2O[C@H](CO)[C@@H](O)[C@H](O)[C@H]2O)[C@H](O)[C@@H](O)[C@@H]1O [trehalose dihydrate]
moisture content of trehalose dihydrate [4]: 9.54%
